Experimental data taken from US20260007634A1, “PHARMACEUTICAL COMPOSITIONS FOR THE TREATMENT OF ALLERGIC DISEASES” (KINKI UNIVERSITY, priority 2022, published 2026).

Key:
Format in all cases: in vivo, mouse
IgE antibody = experiment: Serum IgE antibody ELISA, cedar pollinosis mice; conditions: serum day 28, oral 10 mg/kg (dexamethasone 2 mg/kg), control 71, vehicle 207
Protocol: (§1) A 0.2 mL dose of 100 μg cedar pollen and 1 mg Alum mixture was administered to 6-week-old female Balb/c mice (Japan SLC Inc.) (day 0 of the example). Alum was used as an adjuvant. Seven days later and 14 days later, the Balb/c mice were immunized again with 0.2 mL injections of the above mixture. Starting on day 20, mice were orally treated with 10 mg/kg of norathyriol, 10 mg/kg of mangiferin 8a, 10 mg/kg of tofacitinib (JAK inhibitor), 2 mg/kg of dexamethasone (steroid) and 10 mg/kg of olopatadine (antihistamine) daily for 8 consecutive days. Starting on day 21, 500 μg cedar pollen was administered intranasally, and nose-scratching behavior was measured on day 27. Note that tofacitinib, dexamethasone, and olopatadine are currently in clinical use in cedar pollinosis and were used as control drugs in this example.
Serum was collected from day 28 mice in Examples 28 and 29, and IgE antibody production was measured by enzyme-linked immunosorbent assay (ELISA). This assay was performed using a mouse IgE antibody ELISA kit (R&D).

IL-17 = experiment: Serum IL-17 ELISA, bronchial asthma mice; conditions: OVA bronchial asthma; serum day 28; oral 10 mg/kg (dexamethasone 2 mg/kg); control 80, vehicle 898
Protocol: (§2) A 0.2 mL dose of 50 μg ovalbumin (OVA) and 2 mg Alum mixture was administered to 6-week-old female Balb/c mice (Japan SLC Inc.) (day 0 of the example). Alum was used as an adjuvant. Seven days later and 14 days later, the Balb/c mice were immunized again with 0.2 mL injections of the above mixture. Starting on day 20, mice were orally treated with 10 mg/kg of norathyriol, 10 mg/kg of mangiferin 8a, 10 mg/kg of tofacitinib (JAK inhibitor), 2 mg/kg of dexamethasone (steroid) and 10 mg/kg of olopatadine (antihistamine) daily for 8 consecutive days. Starting on day 21, 400 μg OVA was administered intranasally, and cough was measured on day 27. Note that tofacitinib, dexamethasone, and olopatadine are currently in clinical use in allergic rhinitis and were used as control drugs in this example.
Serum was collected from day 28 mice in Examples 14, and IL-17 production was measured by enzyme-linked immunosorbent assay (ELISA). This assay was performed using a mouse IL-17 ELISA kit (R&D).

IL-5 = experiment: Serum IL-5 ELISA, bronchial asthma mice; conditions: OVA bronchial asthma; serum day 28; oral 10 mg/kg (dexamethasone 2 mg/kg); control 80, vehicle 992
Protocol: as §2
Serum was collected from day 28 mice in Examples 14, and IL-5 production was measured by enzyme-linked immunosorbent assay (ELISA). This assay was performed using a mouse IL-5 ELISA kit (R&D).

OVA-IgE antibody = experiment: Serum OVA-IgE antibody ELISA, food allergy mice; conditions: serum day 28, oral 10 mg/kg (dexamethasone 2 mg/kg), control 1.5, vehicle 74
Protocol: A 0.2 mL dose of 10 μg ovalbumin (OVA) and 1 mg Alum mixture was administered to 6-week-old female Balb/c mice (Japan SLC Inc.) (day 0 of the example). Alum was used as an adjuvant. Seven days later, the Balb/c mice were immunized again with a 0.2 mL injection of the above mixture. Starting on day 14, mice were orally treated with 10 mg/kg of norathyriol, 10 mg/kg of mangiferin 8a, 10 mg/kg of tofacitinib (JAK inhibitor), 2 mg/kg of dexamethasone (steroid) and 10 mg/kg of olopatadine (antihistamine) daily for 14 consecutive days. Starting on day 14, 10 mg OVA was administered orally every other day […], and the frequency of diarrhea was measured after the final administration on day 28. Note that tofacitinib, dexamethasone, and olopatadine are currently in clinical use in food allergy and were used as control drugs in this example.
Serum was collected from day 28 mice in Examples 21, and OVA-IgE antibody production was measured by enzyme-linked immunosorbent assay (ELISA). This assay was performed using a mouse OVA-IgE antibody ELISAkit (FUJIFILM Wako).

IL-4 = experiment: Serum IL-4 ELISA, allergic rhinitis mice; conditions: OVA allergic rhinitis; serum day 28; oral 10 mg/kg (dexamethasone 2 mg/kg); control 227, vehicle 872
Protocol: as §2, with “nose-scratching behavior” for “cough”
Serum was collected from day 28 mice in Examples 6 and 7, and IL-4 production was measured by enzyme-linked immunosorbent assay (ELISA). This assay was performed using a mouse IL-4 ELISA kit (R&D).

[1] = test system: Balb/c mice with cedar pollinosis; experiment: Sneezing, cedar pollinosis model mice; conditions: oral daily 8 days from day 20, 10 mg/kg (dexamethasone 2 mg/kg), measured day 27, vs vehicle group
Protocol: as §1, with “sneezing” for “nose-scratching behavior”
The group that was just immunized with cedar pollen is called the subject group, the one that received norathyriol is called the norathyriol group, the one that received mangiferin 8a is called the mangiferin 8a group, the one that received tofacitinib is called the tofacitinib group, the one that received dexamethasone is called the dexamethasone group, and the one that received olopatadine is called the olopatadine group. Each group consisted of five animals.

| Structure (SMILES) | amount of IgE antibody (IgE antibody) | amount of IL-17 (IL-17) | amount of IL-5 (IL-5) | amount of OVA-IgE antibody (OVA-IgE antibody) | amount of IL-4 (IL-4) | number of sneezing [1] |
| --- | --- | --- | --- | --- | --- | --- |
| C[C@@H]1C[C@H]2[C@@H]3CCC4=CC(=O)C=C[C@]4(C)[C@@]3(F)[C@@H](O)C[C@]2(C)[C@@]1(O)C(=O)CO [dexamethasone] | 154 ng/mL | 257 pg/mL | 286 pg/mL | 21 U/mL | 336 pg/mL |  |
| O=c1c2cc(O)c(O)cc2oc2cc(O)cc(O)c12 [norathyriol, 1,3,6,7-tetrahydroxyxanthone] | 156 ng/mL | 530 pg/mL | 601 pg/mL | 45 U/mL | 495 pg/mL | significantly decreased the number of sneezing |
| CN(C)CC/C=C1/c2ccccc2COc2ccc(CC(=O)O)cc21 [olopatadine] | 218 ng/mL | 848 pg/mL | 866 pg/mL | 68 U/mL | 717 pg/mL | significantly decreased the number of sneezing |
| C[C@@H]1CCN(C(=O)CC#N)C[C@@H]1N(C)c1ncnc2[nH]ccc12 [tofacitinib] | 185 ng/mL | 844 pg/mL | 833 pg/mL | 61 U/mL | 808 pg/mL | significantly decreased the number of sneezing |
